Values quoted from earlier work in patent publication US20130034537A1, “SIMULTANEOUS CO-TREATMENT OF PHYSICAL AND MENTAL SYMPTOMS RELATED TO SEVERE MENTAL DISORDERS BY A SPECIALLY FERMENTED SOY FORMULATION (FSWW08)” (priority 2010, published 2013).

Legend:
schizophrenic men = conditions: oral 2 mg
immunity = conditions: for Magnitude of immunity, ratio: DHEA = 1
adrenals = conditions: rats
[1] = male steroid hormones

Compound: CCCCC(=O)O[C@H]1CC[C@H]2[C@@H]3CCc4cc(O)ccc4[C@H]3CC[C@]12C [estradiol valeriate]
- patients who failed to increase estradiol levels (schizophrenic men): 27%
- testosterone (schizophrenic men): reduce

Compound: C[C@]12CCC(O)C[C@@H]1CC[C@@H]1[C@@H]2CC[C@]2(C)[C@@H](O)CC[C@@H]12 (stereo partly drawn) [androstanediol]
- potency in mediating immunity compared to DHEA (immunity): 100 times

Compound: C[C@]12CC[C@H](O)CC1=CC[C@@H]1[C@@H]2CC[C@]2(C)C(=O)CC[C@@H]12 [DHEA, dehydroepiandrosterone]
- Magnitude of immunity, ratio (immunity): 1

Compound: C[C@]12CCC(O)CC1=CC(O)[C@@H]1[C@@H]2CC[C@]2(C)C(O)CC[C@@H]12 (stereo partly drawn) [Androstenetriol]
- Magnitude of immunity, ratio (immunity): 1000

Compound: O=c1c(-c2ccc(O)cc2)coc2cc(O)cc(O)c12 [genistein]
- DHEA production (adrenals): supporting
- aldosterone production (adrenals): inhibiting
- corticosterone production (adrenals): inhibiting

Compound: C[C@]12CCC(=O)C[C@@H]1CC[C@@H]1[C@@H]2CC[C@]2(C)[C@@H](O)CC[C@@H]12 [DHT, dihydrotestosterone]
- activity relative to testosterone [1]: 10 times
